Source: paper PMC8667942 (Journal of Enzyme Inhibition and Medicinal Chemistry, 2021)

Columns and labels:
Assay in all cases: Direct CYP inhibition assay, pooled human liver microsomes, LC-MS/MS
Assay type in all cases: in vitro ADME
CYP2C9 = molecular target: T1, CYP2C9 (Homo sapiens, UniProt P11712); settings: pooled HLMs, up to 50 μM, tolbutamide substrate
T1 construct: from tissue; host or cells: pooled human liver microsomes
Protocol: (§1) Reactions were incubated in eight-well strips placed in an 8 × 12 racks (1.2 ml; VWR, Emeryville, CA). The incubation mixtures (final volume, 200 μL) contained 0.2 mg/mL HLMs, 0.1 M phosphate buffer (pH 7.4), 1 mM NADPH, and various CYP isoform-specific substrate cocktail sets (A set: phenacetin, coumarin, amodiaquine, S-mephenytoin, dextromethorphan, and midazolam; B set: bupropion, tolbutamide, chlorzoxazone, and testosterone). […] Substrates were dissolved and serially diluted with acetonitrile to the required concentration in all experiments. […] The reactions were incubated at 37 °C in a shaking water bath. The reactions were terminated by placing the incubation tubes on ice, adding 200 μL of cold acetonitrile containing carbamazepine (100 nM) and 4-methylumbelliferone (500 nM) as an internal standard after 10 min, and agitating with a vortex mixer before centrifugation. The samples for each enzyme assay were centrifuged at 3,000 × g for 20 min at 4 °C, and supernatants of the individual reaction samples and pooled cocktail incubation samples (A set: B set, 1:1) were analysed using LC-MS/MS.
(§2) Sample injection volume was 10 μL, and separation was performed on an Atlantis™ dC18 column (2.1 × 50 mm i.d., 3 μm; Waters, Milford, MA, USA) and Luna™5u C18 column (2.0 × 30 mm i.d.; Phenomenex, Torrance, CA, USA) with a SecurityGuard™ C18 guard column (2.0 × 4.0 mm i.d.; Phenomenex, Torrance, CA, USA) maintained at 30 °C. The column was pre-equilibrated in 100% v/v solvent A (deionized water containing 0.1% v/v formic acid)/0% v/v solvent B (acetonitrile containing 0.1% v/v formic acid) at a flow rate of 0.4 ml/min. […] Quadrupoles Q1 and Q3 were set on unit resolution. The samples were analysed via multiple reaction monitoring (MRM) and enhanced product ion (EPI) scan mode. The turbo ion spray interface was operated in the positive ion mode at 5,500 V. The operating conditions were determined as follows: ion source temperature, 600 °C; nebulising gas flow, 50 L/min; auxiliary gas flow, 4.0 L/min; curtain gas flow, 20 L/min; collision gas (nitrogen) pressure 3.6 × 10^−5 Torr. Nitrogen gas was used for CUR, CAD, and NEB. The MRM transitions, collision energies and retention time were determined for each metabolite. The samples were analysed via MRM as described in our previous study. The scan dwell time was set at 0.08 s for every channel. Data acquisition and analysis was performed using the Analyst™ software (version 1.5.2; Applied Biosystems, Foster City, CA, USA).

CYP2D6 = molecular target: T2, CYP2D6 (Homo sapiens, UniProt P10635); settings: pooled HLMs, up to 50 μM, dextromethorphan substrate
T2 construct: from tissue; host or cells: pooled human liver microsomes
T2 sequence (P10635 whole entry): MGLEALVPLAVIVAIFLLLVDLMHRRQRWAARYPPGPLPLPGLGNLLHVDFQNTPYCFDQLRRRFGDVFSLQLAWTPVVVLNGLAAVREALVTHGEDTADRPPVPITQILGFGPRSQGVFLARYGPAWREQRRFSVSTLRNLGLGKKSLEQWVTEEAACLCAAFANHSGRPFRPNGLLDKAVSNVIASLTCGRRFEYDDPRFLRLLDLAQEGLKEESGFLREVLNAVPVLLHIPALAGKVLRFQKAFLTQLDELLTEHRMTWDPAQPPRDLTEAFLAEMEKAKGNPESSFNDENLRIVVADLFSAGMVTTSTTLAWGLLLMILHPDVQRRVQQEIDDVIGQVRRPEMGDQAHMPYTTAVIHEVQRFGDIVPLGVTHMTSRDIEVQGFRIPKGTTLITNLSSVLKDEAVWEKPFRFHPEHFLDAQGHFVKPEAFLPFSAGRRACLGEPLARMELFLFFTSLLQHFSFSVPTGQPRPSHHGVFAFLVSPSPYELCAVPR
Protocol: as §1, §2

CYP2B6 = molecular target: T3, CYP2B6 (Homo sapiens, UniProt P20813); settings: pooled HLMs, up to 50 μM, bupropion substrate
T3 construct: from tissue; host or cells: pooled human liver microsomes
T3 sequence (P20813 1-491): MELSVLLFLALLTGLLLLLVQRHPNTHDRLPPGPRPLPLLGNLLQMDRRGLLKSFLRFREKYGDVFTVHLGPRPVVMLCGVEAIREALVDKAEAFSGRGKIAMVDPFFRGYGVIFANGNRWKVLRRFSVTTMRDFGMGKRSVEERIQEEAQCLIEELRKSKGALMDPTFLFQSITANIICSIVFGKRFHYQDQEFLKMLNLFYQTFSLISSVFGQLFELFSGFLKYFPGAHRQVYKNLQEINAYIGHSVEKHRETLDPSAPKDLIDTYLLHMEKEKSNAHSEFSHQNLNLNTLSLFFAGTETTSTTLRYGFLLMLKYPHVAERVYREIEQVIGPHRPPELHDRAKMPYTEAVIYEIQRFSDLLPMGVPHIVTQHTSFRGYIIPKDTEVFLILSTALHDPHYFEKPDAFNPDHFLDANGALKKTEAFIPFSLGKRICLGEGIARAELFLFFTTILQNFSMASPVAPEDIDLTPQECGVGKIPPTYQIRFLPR
Protocol: as §1, §2

CYP2A6 = molecular target: T4, CYP2A6 (Homo sapiens, UniProt P11509); settings: pooled HLMs, up to 50 μM, coumarin substrate
T4 construct: from tissue; host or cells: pooled human liver microsomes
T4 sequence (P11509 1-494): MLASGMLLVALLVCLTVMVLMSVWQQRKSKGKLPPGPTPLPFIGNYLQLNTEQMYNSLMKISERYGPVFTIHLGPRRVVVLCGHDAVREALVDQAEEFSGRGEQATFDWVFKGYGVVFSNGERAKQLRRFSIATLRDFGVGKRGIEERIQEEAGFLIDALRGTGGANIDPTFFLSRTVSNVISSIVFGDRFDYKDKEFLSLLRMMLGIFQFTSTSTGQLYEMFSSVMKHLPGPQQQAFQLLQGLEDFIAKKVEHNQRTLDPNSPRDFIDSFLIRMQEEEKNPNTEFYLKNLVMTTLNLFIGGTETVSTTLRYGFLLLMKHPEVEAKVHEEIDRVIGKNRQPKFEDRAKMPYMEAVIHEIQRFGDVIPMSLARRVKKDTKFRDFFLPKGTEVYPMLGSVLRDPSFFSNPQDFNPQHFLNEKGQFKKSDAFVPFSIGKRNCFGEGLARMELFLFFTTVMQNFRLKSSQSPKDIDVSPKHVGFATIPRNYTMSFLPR
Protocol: as §1, §2

CYP1A2 = molecular target: T5, CYP1A2 (Homo sapiens, UniProt P05177); settings: pooled HLMs, up to 50 μM, phenacetin substrate
T5 construct: from tissue; host or cells: pooled human liver microsomes
T5 sequence (P05177 1-516): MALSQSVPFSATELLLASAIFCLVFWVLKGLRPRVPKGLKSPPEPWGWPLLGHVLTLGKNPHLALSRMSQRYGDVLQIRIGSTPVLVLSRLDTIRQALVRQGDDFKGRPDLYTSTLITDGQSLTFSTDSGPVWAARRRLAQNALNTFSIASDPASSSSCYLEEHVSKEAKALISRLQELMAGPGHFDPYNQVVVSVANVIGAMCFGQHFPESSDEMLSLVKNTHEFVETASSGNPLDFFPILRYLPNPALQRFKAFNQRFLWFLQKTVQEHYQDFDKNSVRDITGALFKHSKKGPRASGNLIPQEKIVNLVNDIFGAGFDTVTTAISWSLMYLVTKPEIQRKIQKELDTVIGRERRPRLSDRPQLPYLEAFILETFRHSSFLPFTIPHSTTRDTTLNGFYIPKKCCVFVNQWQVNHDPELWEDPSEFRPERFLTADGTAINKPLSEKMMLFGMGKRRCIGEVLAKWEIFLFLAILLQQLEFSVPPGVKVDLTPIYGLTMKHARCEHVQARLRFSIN
Protocol: as §1, §2

CYP2C19 = molecular target: T6, CYP2C19 (Homo sapiens, UniProt P33261); settings: pooled HLMs, up to 50 μM, S-mephenytoin substrate
T6 construct: from tissue; host or cells: pooled human liver microsomes
T6 sequence (P33261 whole entry): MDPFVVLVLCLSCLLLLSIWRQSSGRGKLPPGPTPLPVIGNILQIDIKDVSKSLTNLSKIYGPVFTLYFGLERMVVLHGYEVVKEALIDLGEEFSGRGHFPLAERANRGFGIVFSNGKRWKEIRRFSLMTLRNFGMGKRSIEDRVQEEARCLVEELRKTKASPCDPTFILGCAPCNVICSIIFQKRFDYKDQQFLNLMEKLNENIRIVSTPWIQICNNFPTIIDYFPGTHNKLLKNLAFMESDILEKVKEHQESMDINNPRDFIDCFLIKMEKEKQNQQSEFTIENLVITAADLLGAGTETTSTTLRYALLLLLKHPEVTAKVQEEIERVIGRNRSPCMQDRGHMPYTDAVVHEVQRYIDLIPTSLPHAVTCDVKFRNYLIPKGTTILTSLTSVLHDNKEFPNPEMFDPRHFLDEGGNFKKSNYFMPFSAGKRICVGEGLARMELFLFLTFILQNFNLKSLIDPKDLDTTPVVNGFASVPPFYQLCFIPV
Protocol: as §1, §2

T1 sequence (P11712 whole entry): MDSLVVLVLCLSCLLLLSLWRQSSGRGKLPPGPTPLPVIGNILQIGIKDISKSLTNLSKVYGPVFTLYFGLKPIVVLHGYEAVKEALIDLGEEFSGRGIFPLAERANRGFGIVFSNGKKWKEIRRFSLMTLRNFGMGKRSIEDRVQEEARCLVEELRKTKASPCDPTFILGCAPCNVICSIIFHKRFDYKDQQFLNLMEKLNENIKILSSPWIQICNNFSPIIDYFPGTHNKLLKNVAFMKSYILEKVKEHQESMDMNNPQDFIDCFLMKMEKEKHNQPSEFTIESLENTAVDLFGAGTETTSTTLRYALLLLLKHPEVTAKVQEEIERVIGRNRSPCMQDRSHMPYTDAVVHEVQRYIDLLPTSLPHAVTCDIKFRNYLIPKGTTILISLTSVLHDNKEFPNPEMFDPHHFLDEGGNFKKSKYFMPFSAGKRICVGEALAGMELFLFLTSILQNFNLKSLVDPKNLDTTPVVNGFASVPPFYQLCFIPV

O=[N+]([O-])c1ccc(CNc2nc(NCc3cccc(C(F)(F)F)c3)nc3[nH]cnc23)cc1 [TNP, N^6-[(4-nitrophenyl)methyl]-N^2-[[3-(trifluoromethyl)phenyl]methyl]-9H-purine-2,6-diamine]
no inhibitory effect: inhibitory effect on CYP2C9 (CYP2C9) | inhibitory effect on CYP2D6 (CYP2D6) | inhibitory effect on CYP2B6 (CYP2B6) | inhibitory effect on CYP2A6 (CYP2A6) | inhibitory effect on CYP1A2 (CYP1A2) | inhibitory effect on CYP2C19 (CYP2C19)
